{"source": "paper PMC11189555", "about": "“Aryl amino acetamides prevent Plasmodium falciparum ring development via targeting the lipid-transfer protein PfSTART1” (Nature Communications, 2024)", "test_system": "PopE F8 M-833 resistant clone (PfSTART1 N330K)", "test": "Growth inhibition assay (72 h, LDH activity)", "format": "cell-based, Plasmodium falciparum", "experimental": "The drug was then removed, and parasites were allowed to recover. Another cycle of drug treatment (3 μM M-833) was then resumed. The resistant lines were cloned out by limiting dilution (diluting the culture into a 96-well plate to achieve an average of ~0.3 parasites per well), prior to growth inhibition assays and genomic DNA (gDNA) extraction (DNeasy Blood and Tissue kit (Qiagen)[18].\nParasite growth assays with inhibitory compounds were performed as per[11] and are fully described in the Supplementary Information.\nMolecular biology and transfection of P. falciparum: CRISPR method.\nThe full 5’ homology region of pfstart1 (either WT, N309K or N330K) was amplified from pPfSTART1-HA-2A-Neo-glmS with the same 5’ BglII primer and a new 3’ primer that replaced with PstI with SpeI and introduced a stop codon. The PCR product was then digested with BglII and SpeI and inserted into similarly digested p1.2 parasite vector2. The p1.2 vector had previously been inserted with a homology region amplified from the 3’ end of the pfstart1 gene (3’HB) to form a second homology block for double recombination. The primers used to amplify 3’HB are listed primers listed in […]\n60 μg of p1.2-PfSTART1(WT/N309K/N330K) plasmid was linearised with KasI, precipitated in 3 M sodium acetate and ethanol (70% final concentration) overnight at -20°C. The DNA pellet was washed in cold 70% ethanol and resuspended in cytomix 3.\n50 μ M of crRNA ( Table S 2) and 50 μM of tracRNA (Integrated DNA Technologies) were allowed to form a duplex (5 min at 95°C), and Cas9 enzyme (Integrated DNA Technologies) was added, and incubated for 20 min at room temperature 4. This crRNA -tracRNA -Cas9 mix was added to each DNA preparation and transfected to 3D7 ring parasites using the Bio -Rad Gene Pulser at 310 V and 950 μF.\nParasites containing the transfected DNA were selected using 2.5 nM WR99210 (Jacobus). Parasites lines were cloned using limiting dilution. Correct integration was tested by PCR (using primer START_5’UTR.F and START_Int.R1 , Table S 2), and sequencing was done using the primers START_3F and START_Int.R2 (Table S 2).\nGrowth inhibition assays. Synchronised ring-stage parasites (0.3-0.6% parasitemia, 2% haematocrit) were grown for 72 h in a serial-dilution of the compound under […]\nand compound 4. Note that M-833 was first purchased from MolPort (MolPort -002-267-916) then made in-house at WEHI: the differences observed in EC50s across experiments are attributed to the different batches of M -833. For some experiments, 0, 0.25 or 2.5 mM of glucosamine (GlcN) was also added. Experiments were set up in technical duplicates or triplicates. Following a freeze -thaw cycle, lactate dehydrogenase (LDH) activity was assessed as an indicator of parasite growt h 5. 30 μL of parasite culture was incubated for 30 min in the dark with 75 μL Malstat mixture (0.1 M Tris pH 9.0, 20 g/L lactic acid, pH 7.5, 0.2% Triton-X100, 0.5 g/L acetylpyridine adenine dinucleotide (APAD, Sigma), 200 μg/mL nitroblue tetrazolium (NBT; Sigma), 1 μg/mL phenozine ethosulfate (PES; Sigma)). Absorbance was then measured at 650 nm, transformed using the formula below, plotted against the logarithm of the concentrations, and a non-linear regression (log(inhibitor) vs. response, variable slope) was calculated using GraphPad Prism to assess the half-inhibitory […]\nGrowth inhibition % = (1 − average(sample)− average(uRBC)) ∗ 100 […]\nThe DMSO samples were also used to assess growth of parasite in the presence of 0.25 and 2.5 mM GlcN (normalised by DMSO in 0 mM GlcN).\nEgress, invasion & recovery assay. To measure egress, invasion and follow up recovery in the presence of different compounds, we adapted the method developed in6, using Hyp1-Nluc parasites7. These parasites episomally express the exported PEXEL protein Hyp1 (PF3D7_0113300) tagged with a NanoLuc luciferase (NLuc) and were selected with 2.5 nM WR99210 (Jacobus). Highly synchronised schizonts were […]", "note": "Where two headings read alike, the source gives them in different places.", "data": [{"smiles": "Cc1cc(Cl)c(S(=O)(=O)N2CCCC2)cc1OCC(=O)NC1CCCCC1", "note": "[M-833]", "values": [{"measurement": "Normalised to DMSO", "setting": "M-833 0.0390625 uM, Pop E-F8 replicate 1", "result": 109.671}, {"measurement": "Normalised to DMSO", "setting": "M-833 0.0390625 uM, PopE-F8 replicate 3", "result": 109.081}, {"measurement": "Normalised to DMSO", "setting": "M-833 0.078125 uM, Pop E-F8 replicate 1", "result": 111.583}, {"measurement": "Normalised to DMSO", "setting": "M-833 0.078125 uM, PopE-F8 replicate 3", "result": 106.576}, {"measurement": "Normalised to DMSO", "setting": "M-833 0.15625 uM, Pop E-F8 replicate 1", "result": 105.619}, {"measurement": "Normalised to DMSO", "setting": "M-833 0.15625 uM, PopE-F8 replicate 3", "result": 106.576}, {"measurement": "Normalised to DMSO", "setting": "M-833 0.3125 uM, Pop E-F8 replicate 1", "result": 109.939}, {"measurement": "Normalised to DMSO", "setting": "M-833 0.3125 uM, PopE-F8 replicate 3", "result": 106.263}, {"measurement": "Normalised to DMSO", "setting": "M-833 0.625 uM, Pop E-F8 replicate 1", "result": 106.384}, {"measurement": "Normalised to DMSO", "setting": "M-833 0.625 uM, PopE-F8 replicate 3", "result": 108.612}, {"measurement": "Normalised to DMSO", "setting": "M-833 1.25 uM, Pop E-F8 replicate 1", "result": 102.255}, {"measurement": "Normalised to DMSO", "setting": "M-833 1.25 uM, PopE-F8 replicate 3", "result": 105.48}, {"measurement": "Normalised to DMSO", "setting": "M-833 2.5 uM, Pop E-F8 replicate 1", "result": 99.4266}, {"measurement": "Normalised to DMSO", "setting": "M-833 2.5 uM, PopE-F8 replicate 3", "result": 94.0501}, {"measurement": "Normalised to DMSO", "setting": "M-833 5 uM, Pop E-F8 replicate 1", "result": 83.5245}, {"measurement": "Normalised to DMSO", "setting": "M-833 5 uM, PopE-F8 replicate 3", "result": 74.6347}, {"measurement": "Normalised to DMSO", "setting": "M-833 10 uM, Pop E-F8 replicate 1", "result": 58.7156}, {"measurement": "Normalised to DMSO", "setting": "M-833 10 uM, PopE-F8 replicate 3", "result": 75.7307}, {"measurement": "inhibition at 0.0390625 µM", "setting": "Plasmodium falciparum, M-833 0.0390625 uM, Pop E-F8 replicate 1, read-out: % Inhibition", "result": -9.67, "unit": "%"}, {"measurement": "inhibition at 0.0390625 µM", "setting": "Plasmodium falciparum, M-833 0.0390625 uM, PopE-F8 replicate 3, read-out: % Inhibition", "result": -9.08, "unit": "%"}, {"measurement": "inhibition at 0.078125 µM", "setting": "Plasmodium falciparum, M-833 0.078125 uM, Pop E-F8 replicate 1, read-out: % Inhibition", "result": -11.6, "unit": "%"}, {"measurement": "inhibition at 0.078125 µM", "setting": "Plasmodium falciparum, M-833 0.078125 uM, PopE-F8 replicate 3, read-out: % Inhibition", "result": -6.58, "unit": "%"}, {"measurement": "inhibition at 0.15625 µM", "setting": "Plasmodium falciparum, M-833 0.15625 uM, Pop E-F8 replicate 1, read-out: % Inhibition", "result": -5.62, "unit": "%"}, {"measurement": "inhibition at 0.15625 µM", "setting": "Plasmodium falciparum, M-833 0.15625 uM, PopE-F8 replicate 3, read-out: % Inhibition", "result": -6.58, "unit": "%"}, {"measurement": "inhibition at 0.3125 µM", "setting": "Plasmodium falciparum, M-833 0.3125 uM, Pop E-F8 replicate 1, read-out: % Inhibition", "result": -9.94, "unit": "%"}, {"measurement": "inhibition at 0.3125 µM", "setting": "Plasmodium falciparum, M-833 0.3125 uM, PopE-F8 replicate 3, read-out: % Inhibition", "result": -6.26, "unit": "%"}, {"measurement": "inhibition at 0.625 µM", "setting": "Plasmodium falciparum, M-833 0.625 uM, Pop E-F8 replicate 1, read-out: % Inhibition", "result": -6.38, "unit": "%"}, {"measurement": "inhibition at 0.625 µM", "setting": "Plasmodium falciparum, M-833 0.625 uM, PopE-F8 replicate 3, read-out: % Inhibition", "result": -8.61, "unit": "%"}, {"measurement": "inhibition at 1.25 µM", "setting": "Plasmodium falciparum, M-833 1.25 uM, Pop E-F8 replicate 1, read-out: % Inhibition", "result": -2.26, "unit": "%"}, {"measurement": "inhibition at 1.25 µM", "setting": "Plasmodium falciparum, M-833 1.25 uM, PopE-F8 replicate 3, read-out: % Inhibition", "result": -5.48, "unit": "%"}, {"measurement": "inhibition at 2.5 µM", "setting": "Plasmodium falciparum, M-833 2.5 uM, Pop E-F8 replicate 1, read-out: % Inhibition", "result": 0.573, "unit": "%"}, {"measurement": "inhibition at 2.5 µM", "setting": "Plasmodium falciparum, M-833 2.5 uM, PopE-F8 replicate 3, read-out: % Inhibition", "result": 5.95, "unit": "%"}, {"measurement": "inhibition at 5 µM", "setting": "Plasmodium falciparum, M-833 5 uM, Pop E-F8 replicate 1, read-out: % Inhibition", "result": 16.5, "unit": "%"}, {"measurement": "inhibition at 5 µM", "setting": "Plasmodium falciparum, M-833 5 uM, PopE-F8 replicate 3, read-out: % Inhibition", "result": 25.4, "unit": "%"}, {"measurement": "inhibition at 10 µM", "setting": "Plasmodium falciparum, M-833 10 uM, Pop E-F8 replicate 1, read-out: % Inhibition", "result": 41.3, "unit": "%"}, {"measurement": "inhibition at 10 µM", "setting": "Plasmodium falciparum, M-833 10 uM, PopE-F8 replicate 3, read-out: % Inhibition", "result": 24.3, "unit": "%"}, {"measurement": "inhibition at 0.0390625 µM", "setting": "Plasmodium falciparum, Pop E-F8 replicate 1, M-833 0.0390625 uM", "result": -1.3, "unit": "%"}, {"measurement": "inhibition at 0.078125 µM", "setting": "Plasmodium falciparum, Pop E-F8 replicate 1, M-833 0.078125 uM", "result": -1.67, "unit": "%"}, {"measurement": "inhibition at 0.15625 µM", "setting": "Plasmodium falciparum, Pop E-F8 replicate 1, M-833 0.15625 uM", "result": 1.93, "unit": "%"}, {"measurement": "inhibition at 0.3125 µM", "setting": "Plasmodium falciparum, Pop E-F8 replicate 1, M-833 0.3125 uM", "result": 3.08, "unit": "%"}, {"measurement": "inhibition at 0.625 µM", "setting": "Plasmodium falciparum, Pop E-F8 replicate 1, M-833 0.625 uM", "result": 3.36, "unit": "%"}, {"measurement": "inhibition at 1.25 µM", "setting": "Plasmodium falciparum, Pop E-F8 replicate 1, M-833 1.25 uM", "result": 4.32, "unit": "%"}, {"measurement": "inhibition at 2.5 µM", "setting": "Plasmodium falciparum, Pop E-F8 replicate 1, M-833 2.5 uM", "result": 11.8, "unit": "%"}, {"measurement": "inhibition at 5 µM", "setting": "Plasmodium falciparum, Pop E-F8 replicate 1, M-833 5 uM", "result": 18.8, "unit": "%"}, {"measurement": "inhibition at 10 µM", "setting": "Plasmodium falciparum, Pop E-F8 replicate 1, M-833 10 uM", "result": 41, "unit": "%"}, {"measurement": "EC50", "setting": "Plasmodium falciparum, read-out: EC50 (95% confidence interval)", "result": "> 10", "unit": "µM"}, {"measurement": "Normalised to DMSO", "setting": "Pop E-F8 replicate 1, M-833 0.0390625 uM", "result": 101.305}, {"measurement": "Normalised to DMSO", "setting": "Pop E-F8 replicate 1, M-833 0.078125 uM", "result": 101.672}, {"measurement": "Normalised to DMSO", "setting": "Pop E-F8 replicate 1, M-833 0.15625 uM", "result": 98.0669}, {"measurement": "Normalised to DMSO", "setting": "Pop E-F8 replicate 1, M-833 0.3125 uM", "result": 96.9165}, {"measurement": "Normalised to DMSO", "setting": "Pop E-F8 replicate 1, M-833 0.625 uM", "result": 96.6437}, {"measurement": "Normalised to DMSO", "setting": "Pop E-F8 replicate 1, M-833 1.25 uM", "result": 95.6831}, {"measurement": "Normalised to DMSO", "setting": "Pop E-F8 replicate 1, M-833 2.5 uM", "result": 88.1997}, {"measurement": "Normalised to DMSO", "setting": "Pop E-F8 replicate 1, M-833 5 uM", "result": 81.2026}, {"measurement": "Normalised to DMSO", "setting": "Pop E-F8 replicate 1, M-833 10 uM", "result": 58.9777}]}]}
